# In the METLIN SMRT retention time set (Domingo-Almenara et al. 2019):
# Experiment: gradient 5% acetonitrile 3 min, to 50% in 2 min, to 85% in 15 min, held 3 min, 100 µL/min
# Details: column: Zorbax Extend-C18 2.1 x 50 mm; eluents: water / acetonitrile, 0.1% formic acid
# Summary of the method: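 Using water and acetonitrile that each contained 0.1% formic acid, mixtures of ~100 pure standards were separated at 100 μL/min on a Zorbax Extend-C18 column (2.1 × 50 mm, 1.8 μm). The HPLC fed a quadrupole time-of-flight mass spectrometer working in positive and negative ionization mode, with dead and dwell volumes of 40 μL and 900 μL. Data were acquired over 3 months. Retention time was read from computationally picked adduct peaks after manual inspection of each.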
row,Compound,RP-LC retention time
1,CCOC(=O)N1CCN(c2ncc(C(=O)Nc3ccccc3)c(N)n2)CC1,692 s
2,Cc1ccc(NS(=O)(=O)c2cc3n(c2)CCN(C)C3=O)cc1,700 s
3,O=C(CC1CCCN(c2cn[nH]c(=O)c2)C1)Nc1ccc2c(c1)OCCO2 (stereo not given),639 s
4,COc1cc(NC(=O)N2CCC3(CC2)Nc2ccccc2-n2cccc23)cc(OC)c1OC,920 s
5,COc1cccc(NC(=O)N2CCC3(CC2)NC(=O)c2cc(Cl)ccc2N3C)c1,780 s
6,COC(=O)c1cccc(Nc2c(-c3ccc(OC)cc3)nc3cnccn23)c1,810 s
7,CCc1nccn1Cc1noc(-c2ccco2)n1,566 s
8,Cc1cccc(C(=O)NCC2CCCN(S(=O)(=O)c3cc(C)c(C)cc3C)C2)c1 (stereo not given),1060 s
9,COc1ccc(-c2nnc(-c3ccccc3)o2)cc1S(N)(=O)=O,716 s
10,CCCCN(C)C(=O)c1ccc2c(c1)nc1n2CCN(C2CCCCC2)C1=O,786 s
11,CC1(C)CC(=O)c2cn(-c3ccccc3)c(=O)c(C(=O)Nc3cccc(C#N)c3)c2C1,1030 s
12,CC(C)NC(=O)Cn1c(C2CCCO2)nc2ccccc21 (stereo not given),585 s
13,COC(=O)c1ccc(CSc2ccc(NC(=O)c3cccs3)nn2)o1,820 s
14,O=C(c1[nH]nc2c1CCc1ccccc1-2)N1CCC(c2noc(-c3ccccn3)n2)C1 (stereo not given),776 s
15,COc1cccc(-c2nc(Cn3ccn4nc(-c5ccc(F)cc5)cc4c3=O)c(C)o2)c1OC,1080 s
16,O=C(NC1CC1)C1CCN(S(=O)(=O)c2cc(-c3noc(C4CCC4)n3)cs2)CC1,878 s

row,Compound,RP-LC retention time
1,CCCCC(=O)Nc1nc(-c2ccc3c(c2)N(C)C(=O)C(C)O3)cs1 (stereo not given),953 s
2,COc1ccc(-n2c(=O)c(C(=O)NC3CCCCCC3)c(O)c3cccnc32)cc1,1380 s
3,CCOC(=O)c1noc2ncnc(NCC3CCN(Cc4ccccc4Cl)CC3)c12,603 s
4,CN(C)S(=O)(=O)c1ccc(-c2nnc(C(=O)NCc3ccc(F)c(Cl)c3)o2)cc1,898 s
5,COc1cccc(-c2nc(C3CCN(C(=O)C4COc5ccccc5O4)CC3)no2)c1 (stereo not given),1060 s
6,CCCNC(=O)Cc1c(C)nc2nc(-c3ccc(C(C)(C)C)cc3)nn2c1C,920 s
7,Cc1occc1-c1nnc(SC(C)C(=O)N2CCCc3ccccc32)o1 (stereo not given),981 s
8,O=C(CCc1nnn2c1CN(C(=O)c1ccoc1)CC2)N1CCOCC1,580 s
9,CC(C)NC(=O)N1CCCC(c2cccc(C(=O)NCCN3CCCCC3C)c2)C1 (stereo not given),624 s
10,CC(C)n1cc(C2=CCN(S(=O)(=O)c3cccc(C#N)c3)CC2)c2cccnc21,995 s
11,CCC(C)N1CC(=O)N(c2ccc(OC)c(Cl)c2)[C@@H]2CS(=O)(=O)C[C@@H]21 (stereo not given in full),786 s
12,CCn1c(=O)n(CC(=O)N2CCOCC2)c(=O)c2cnc(-c3ccc(Cl)cc3)nc21,934 s
13,Cc1nn(CC(=O)NCCCOC(C)C)c(=O)c2c(-n3cccc3)n(-c3ccc(Cl)cc3)nc12,997 s
14,O=C1CC(c2noc(-c3cccc(F)c3)n2)CN1c1ccc(Cl)cc1 (stereo not given),1080 s
15,CC1=C(c2ccc(C)cc2)S(=O)(=O)N=C1N1CCCN(C(=O)Cn2ccnc2C)CC1,616 s
16,Cc1c(CC(=O)N2CCC(C(N)=O)CC2)c(=O)oc2cc3occ(-c4ccc(F)cc4)c3cc12,768 s

# The next lines start with the values.
row,RP-LC retention time,Compound
1,895 s,O=C(NC1CCCC1)C1CCCN(c2nc3ccsc3c(=O)n2Cc2ccccc2)C1 (stereo not given)
2,632 s,N#Cc1cccc(-c2nc(-c3ccc4c(c3)ncn4CCN3CCCCC3)no2)c1
3,670 s,CN(CC1CCOCC1)C(=O)Nc1ccc2c(c1)OCCO2
4,560 s,COC(=O)c1ccc(CN2CCC(c3nnc(C(F)(F)F)o3)CC2)o1
5,861 s,CCc1cccc(NC(=O)Cn2c(C)nc3onc(C)c3c2=O)c1
6,650 s,Cc1cc(-c2csc(S(=O)(=O)NCCCN3CCN(Cc4ccccc4)CC3)c2)on1
7,670 s,O=C(NCc1ccccc1Cl)C(=O)NCC1(CO)CC1
8,980 s,CCOC(=O)c1c(S(=O)(=O)N2CCC(C(=O)Nc3cc(C)cc(C)c3)CC2)c(C)n(CC)c1C
9,865 s,Cc1noc(-c2ccc(-n3cnc(C(=O)NCc4ccc(Cl)cc4)c3)nc2)n1
10,1110 s,Fc1ccc(C2Cn3nnc(-c4nc(-c5ccccc5F)no4)c3CO2)cc1 (stereo not given)
11,951 s,CCCc1nc(-c2c(C)cc(C)nc2NC(=O)c2ccccc2C(F)(F)F)no1
12,982 s,Cc1cccc(CNC(=O)CCC2CCN(S(=O)(=O)c3ccccc3C)CC2)c1
13,924 s,COc1ccc(OC)c(NC(=O)Cn2c(C)cc(-c3nnc(C4CCC4)o3)c2C)c1
14,833 s,Cc1cccc(CN2C(=O)C3(CCOCC3)CC2c2nnnn2C(C)(C)C)c1 (stereo not given)
15,695 s,CCOC(=O)Cc1cc(=O)c2cc(C)ccc2[nH]1
16,881 s,O=C1CN(S(=O)(=O)c2ccc(F)c(Cl)c2)CC2(CCOCC2)N1CC1CC1
17,764 s,COCC(=O)Nc1nc(-c2ccc3c(c2)N(C)C(=O)CO3)c(C)s1

row,RP-LC retention time,Compound
1,721 s,CC1(C)CC(=O)C2=C(C1)Nc1ccccc1N(CC(=O)N1CCOCC1)C2c1cccs1 (stereo not given)
2,550 s,COCC(=O)N1CCOc2ccc(N(C)C)cc2C1
3,676 s,O=c1cc(Cn2nc3ccc(-c4ccc(Cl)cc4)nn3c2=O)nc2ccccn12
4,1050 s,CCc1nc(-c2csc(S(=O)(=O)N3CCC(C(=O)N4CCc5ccccc54)CC3)c2)no1
5,937 s,COc1ccc(-c2cc3c4nn(CC(=O)N5CCCc6ccccc65)c(=O)n4ccn3n2)cc1
6,582 s,O=C(CC1CCN(C(=O)c2ccccc2)CC1)N1CCN(c2ccccn2)CC1
7,759 s,CCc1ccccc1NC(=O)Cn1cnc2nc(N3CCCC(C(=O)NC(C)C)C3)sc2c1=O (stereo not given)
8,610 s,CS(=O)(=O)N(Cc1ccncc1)C1CN(C(=O)C2(c3ccccc3)CC2)C1
9,573 s,CN1CCC([C@@H]2CN(S(=O)(=O)c3ccc(Cl)s3)C[C@H]2C(N)=O)CC1
10,724 s,Cc1cc(Cl)ccc1NC(=O)N1CCCC1c1nncn1-c1ccccc1 (stereo not given)
11,877 s,O=C(Nc1ccc(Cl)cc1)C1CCCN(c2ncnc3c2nc2n3CCCCC2)C1 (stereo not given)
12,1220 s,O=c1c2cc(-c3cccs3)nn2cnn1Cc1nc(-c2ccc(OCc3ccccc3)cc2)no1
13,600 s,CCN1CCN(CCNC(=O)c2cccn2-c2nnc(N3CCCCCC3)s2)CC1
14,678 s,O=C(NCCn1ncc2c(=O)n(Cc3ccccc3F)cnc21)c1ccc2c(c1)OCO2
15,896 s,CCc1nc2ccccc2c(=O)n1Cc1noc(-c2cncc(Br)c2)n1
16,656 s,COc1ccc(S(=O)(=O)Nc2ccc(-c3cn4ccc(C)nc4n3)cc2)cc1
